Legend:
Type in all cases: cell-based, Human
[1] = system: 501mel; test: MTT cytotoxicity assay; conditions: for IC50: Homo sapiens, 501mel, 72 h treatment, MTT
Text: (§1) Human cell lines were used throughout this program. SK-MEL-19 (melanoma BRAF^V600E, NRAS^WT), SK-MEL-28 (melanoma BRAF^V600E, NRAS^WT), SK-MEL-147 (melanoma BRAF^WT, NRAS^Q61R), MRC-5 (fibroblasts), and primary fibroblast (FDH) were kindly provided by Professor Glaucia Santelli (University of São Paulo, Brazil). MCF7 (breast adenocarcinoma, ATCC HTB-22), and HCT-116 (colorectal carcinoma, ATCC 247) cells were obtained from American Type Culture Collection (ATCC) and deposited in the Cell Bank of Rio de Janeiro, Brazil. WM293A (metastatic melanoma BRAF^V600D, NRAS^WT), 501mel (metastatic melanoma BRAF^V600E; NRAS^G12D), and MM200 (melanoma BRAF^V600E, NRAS^WT) were kindly provided by Professor Sharon Prince, University of Cape Town, South Africa. All human melanoma and breast cell lines were cultivated with Dulbecco’s Modified Eagle Medium: Nutrient Mixture F-12 (Thermo Fisher Scientific, San Jose, CA, USA). MM200 and HCT-116 were maintained with Roswell Park Memorial Institute (RPMI) medium (Thermo Fisher Scientific, San Jose, CA, USA). Unless stated otherwise, media was supplemented with 10% fetal bovine serum (FBS) and 1% penicillin-streptomycin (Thermo Fisher Scientific, San Jose, CA, USA). Cells were incubated with 5% CO2 at 37 °C. When required, cells were detached from flask using trypsin-EDTA 0.05% (Thermo Fisher Scientific, San Jose, CA, USA).
(§2) Cytotoxic activity was evaluated by the transformation of 3-(4,5-dimethylthiazol-2-yl)-2,5-diphenyltetrazolium bromide (MTT; Thermo Fisher Scientific, San Jose, CA, USA) into formazan by viable cells. Cells were plated in a 96-well plate (1 × 10^4 cells/well) and, 24 h later, exposed to serial dilutions of the test compounds (from 0.00032 to 5.0 µM) for 24, 48, and 72 h. For each analysis, negative controls received 0.5% DMSO and positive control was delivered by doxorubicin (DOX; 0.05 to 10.0 µM). At the end of the incubation periods, the medium was replaced with fresh medium containing 0.5 mg/mL of MTT and supernatant was removed 3 h later. The plates were dried at 50 °C for 30 min and formazan was solubilized in DMSO (150 µL/well) for the absorbance measure at 570 nm on a plate reader (Thermo Fisher Scientific, San Jose, CA, USA). IC50 values (half-maximal inhibitory concentration) along with 95% CI (confidence intervals) were calculated by non-linear regression using GraphPad Prism 8.0 software (GraphPad Software, Inc., San Diego, CA, USA).

[2] = system: FDH; test: MTT cytotoxicity assay; conditions: FDH primary fibroblasts, 72 h treatment
Text: as §1, §2

[3] = system: HCT-116; test: MTT cytotoxicity assay; conditions: for IC50: Homo sapiens, HCT-116, 72 h treatment, MTT
Text: as §1, §2

[4] = system: MCF7; test: MTT cytotoxicity assay; conditions: for IC50: Homo sapiens, MCF7, 72 h treatment, MTT
Text: as §1, §2

[5] = system: MM200; test: MTT cytotoxicity assay; conditions: for IC50: MM200, 72 h treatment, MTT
Text: as §1, §2

[6] = system: SK-MEL-147; test: MTT cytotoxicity assay; conditions: for IC50: Homo sapiens
Text: as §1, §2

[7] = system: SK-MEL-19; test: MTT cytotoxicity assay; conditions: for IC50: Homo sapiens, SK-MEL19, SK-MEL-19, 72 h treatment, MTT
Text: as §1, §2

[8] = system: SK-MEL-28; test: MTT cytotoxicity assay; conditions: for IC50: Homo sapiens
Text: as §1, §2

[9] = system: WM293A; test: MTT cytotoxicity assay; conditions: for IC50: Homo sapiens, WM293A, 72 h treatment, MTT
Text: as §1, §2

[10] = system: SK-MEL-28; test: Clonogenic assay; conditions: SK-MEL-28, 24 h treatment at half IC50 and IC50, 6 days in drug-free medium
Procedure: […] (2.5 × 10^5) cells in 1 mL of media were seeded in cell culture dishes and, 24 h later, treated with SQ1 (0.3 µM and 0.6 µM for SK-MEL-28 and 0.9 µM and 1.8 µM for SK-MEL-147) or SQ2 (0.05 µM and 0.1 µM for SK-MEL-28 and 0.6 µM and 1.2 µM for SK-MEL-147) for 24 h. Doxorubicin (DOX; 1.4 µM for SK-MEL-28 and 0.8 µM for SK-MEL-147) was used as positive control and 0.5% DMSO as negative control.
After the cells were submitted to the treatment scheme (Section 4.6), adherent cells were collected, plated at 1 × 10^3 cell/plate on 35-mm plates and maintained in culture for 6 days in treatment-free medium. The medium was replaced every 2 days. Cells were then fixed and stained with a solution of 20% MeOH (Synth, Diadema, São Paulo, Brazil) and 0.5 g crystal violet (Sigma-Aldrich, St. Louis, MO, USA). Images were acquired using G:BOX Chemi XRQ (Syngene, Cambridge, UK) and quantified using the ImageJ program (ColonyArea; US National Institutes of Health, Bethesda, MD, USA).

[11] = system: melanoma cells; test: MTT cytotoxicity assay, melanoma panel
Text: as §1, §2

[12] = 501mel versus FDH, 72-h IC50 ratio
[13] = 501mel versus MRC-5, 72-h IC50 ratio
[14] = HCT-116 versus FDH, 72-h IC50 ratio
[15] = HCT-116 versus MRC-5, 72-h IC50 ratio
[16] = MCF7 versus FDH, 72-h IC50 ratio
[17] = MCF7 versus MRC-5, 72-h IC50 ratio
[18] = MM200 versus FDH, 72-h IC50 ratio
[19] = MM200 versus MRC-5, 72-h IC50 ratio
[20] = SK-MEL-147, 24 h, SK-MEL-147, 24h treatment, MTT
[21] = SK-MEL-147, 48 h, SK-MEL-147, 48h treatment, MTT
[22] = SK-MEL-147, 72 h, SK-MEL-147, 72 h treatment, MTT
[23] = SK-MEL-147, SK-MEL-147, 24h treatment, 1h pre-treated with 30 nM bafilomycin A1
[24] = SK-MEL-147, SK-MEL-147, 24h treatment, 1h pre-treated with 20 µM Z-VAD-FMK
[25] = SK-MEL-147, SK-MEL-147, 24h treatment, no pre-treatment (Table S4)
[26] = SK-MEL-147 versus FDH, 72-h IC50 ratio
[27] = SK-MEL-147 versus MRC-5, 72-h IC50 ratio
[28] = SK-MEL-19 versus FDH, 72-h IC50 ratio
[29] = SK-MEL-19 versus MRC-5, 72-h IC50 ratio
[30] = SK-MEL-28, 24 h, SK-MEL-28, 24h treatment, MTT
[31] = SK-MEL-28, 48 h, SK-MEL-28, 48h treatment, MTT
[32] = SK-MEL-28, 72 h, SK-MEL-28, 72 h treatment, MTT
[33] = SK-MEL-28, SK-MEL-28, 24h treatment, 1h pre-treated with 30 nM bafilomycin A1
[34] = SK-MEL-28, SK-MEL-28, 24h treatment, 1h pre-treated with 20 µM Z-VAD-FMK
[35] = SK-MEL-28, SK-MEL-28, 24h treatment, no pre-treatment (Table S4)
[36] = SK-MEL-28 versus FDH, 72-h IC50 ratio
[37] = SK-MEL-28 versus MRC-5, 72-h IC50 ratio
[38] = WM293A versus FDH, 72-h IC50 ratio
[39] = WM293A versus MRC-5, 72-h IC50 ratio

O=c1c2ccccc2c(=O)c2c1sc1c(=O)c3ccccc3c(=O)c12 [SQ1, seriniquinone]
Selectivity Index (SI) [1, 12]: 3.6 | Selectivity Index (SI) [1, 13]: 2.0 | IC50 [1]: 320 nM | IC50 [2]: 1200 nM | IC50 ([2]; Homo sapiens, Fibroblast, 72 h): 1150 nM | Selectivity Index (SI) [3, 14]: 1.1 | Selectivity Index (SI) [3, 15]: 0.6 | IC50 [3]: 1000 nM | IC50 [4]: 3300 nM | Selectivity Index (SI) [4, 16]: 0.3 | Selectivity Index (SI) [4, 17]: 0.2 | IC50 ([5]; Homo sapiens, 72 h): 1360 nM | IC50 [5]: 1400 nM | Selectivity Index (SI) [5, 18]: 0.8 | Selectivity Index (SI) [5, 19]: 0.5 | IC50 [6, 20]: 1790 nM | IC50 [6, 21]: 1610 nM | IC50 [6, 22]: 130 nM | IC50 [6, 23]: 2260 nM | IC50 [6, 24]: 1890 nM | IC50 [6, 25]: 1640 nM | Selectivity Index (SI) [6, 26]: 8.8 | Selectivity Index (SI) [6, 27]: 4.9 | IC50 [7]: 60 nM | Selectivity Index (SI) [7, 28]: 19.2 | Selectivity Index (SI) [7, 29]: 10.7 | IC50 [8, 30]: 560 nM | IC50 [8, 31]: 690 nM | IC50 [8, 32]: 150 nM | IC50 [8, 33]: 140 nM | IC50 [8, 34]: 700 nM | IC50 [8, 35]: 350 nM | Selectivity Index (SI) [8, 36]: 7.7 | Selectivity Index (SI) [8, 37]: 4.3 | IC50 [9]: 1050 nM | Selectivity Index (SI) [9, 38]: 1.1 | Selectivity Index (SI) [9, 39]: 0.6 | reduction of the colony levels [10]: greater than 50%

CC(C)(O)C(O)CCc1ccc2c(=O)c3sc4c(=O)c5ccccc5c(=O)c4c3c(=O)c2c1 (stereo not drawn) [SQ2]
Selectivity Index (SI) [1, 12]: 10.6 | Selectivity Index (SI) [1, 13]: 14.3 | IC50 [1]: 110 nM | IC50 ([2]; Homo sapiens, Fibroblast, 72 h): 1170 nM | Selectivity Index (SI) [3, 14]: 5.1 | Selectivity Index (SI) [3, 15]: 6.8 | IC50 [3]: 230 nM | IC50 [4]: 730 nM | Selectivity Index (SI) [4, 16]: 1.6 | Selectivity Index (SI) [4, 17]: 2.2 | IC50 ([5]; Homo sapiens, 72 h): 750 nM | Selectivity Index (SI) [5, 18]: 1.6 | Selectivity Index (SI) [5, 19]: 2.1 | IC50 [6, 20]: 1260 nM | IC50 [6, 21]: 890 nM | IC50 [6, 22]: 100 nM | IC50 [6, 23]: 1180 nM | IC50 [6, 24]: 1280 nM | IC50 [6, 25]: 910 nM | Selectivity Index (SI) [6, 26]: 11.7 | Selectivity Index (SI) [6, 27]: 15.7 | IC50 [7]: 40 nM | Selectivity Index (SI) [7, 28]: 29.3 | Selectivity Index (SI) [7, 29]: 39.3 | IC50 [8, 30]: 140 nM | IC50 [8, 31]: 260 nM | IC50 [8, 32]: 40 nM | IC50 [8, 33]: 60 nM | IC50 [8, 34]: 370 nM | IC50 [8, 35]: 240 nM | Selectivity Index (SI) [8, 36]: 29.3 | Selectivity Index (SI) [8, 37]: 39.3 | IC50 [9]: 740 nM | Selectivity Index (SI) [9, 38]: 1.6 | Selectivity Index (SI) [9, 39]: 2.1 | selectivity indices to SK-Mel cells in relation to non-tumor cell lines ([11]; SK-Mel cells versus non-tumor cell lines): ≥ twofold | selectivity for melanoma cells (SI ratio) ([11]; melanoma cells versus non-tumor cell lines MRC-5 or FDH, highest values reached): 30–40
